In patent US20070099911A1, “Pyrroloquinolinone derivatives as 5-hydroxytryptamine-6 ligands” (Wyeth, priority 2005, published 2007):
Structures can show the parent of a compound that is named as a salt.

Molecular target: T1, human cloned 5-HT6 receptors (Homo sapiens, UniProt P50406)
T1 construct: expressed in transfected cells; host or cells: HeLa cells (membrane preparation)
Test: Comparative evaluation of 5-HT6 binding affinity ([3H]-LSD displacement, Hela cell membranes)
Conditions: not given
Experimental: Comparative Evaluation of 5-HT6 Binding Affinity of Test Compounds
The affinity of test compounds for the 5-HT6 receptor is evaluated in the following manner. Cultured Hela cells expressing human cloned 5-HT6 receptors are harvested and centrifuged at low speed (1,000×g) for 10.0 min to remove the culture media. The harvested cells are suspended in half volume of fresh physiological phosphate buffered saline (PBS) solution and recentrifuged at the same speed. This operation is repeated. The collected cells are then homogenized in ten volumes of 50 mM Tris.HCl (pH 7.4) and 0.5 mM EDTA. The homogenate is centrifuged at 40,000×g for 30.0 min, and the precipitate is collected. The obtained pellet is resuspended in 10 volumes of Tris.HCl buffer and recentrifuged at the same speed. The final pellet is suspended in a small volume of Tris.HCl buffer, and the tissue protein content is determined in aliquots of 10-25 microliter volumes. Bovine Serum Albumin is used as the standard in the protein determination according to the method described in Lowry et al., J. Biol. Chem. 1951, 193, 265. The volume of the suspended cell membranes is adjusted to give a tissue protein concentration of 1.0 mg/ml of suspension. The prepared membrane suspension (10 times concentrated) is aliquoted in 1.0 ml volumes and stored at −70° C. until used in subsequent binding experiments.
The reaction is allowed to proceed in the dark for 120 min at room temperature, at which time, the bound ligand-receptor complex is filtered off on a 96-well unifilter with a Packard Filtermate® 196 Harvester. The bound complex caught on the filter disk is allowed to air dry, and the radioactivity is measured in a Packard TopCount® equipped with six photomultiplier detectors, after the addition of 40.0 micoliters Micorscint®-20 scintillant to each shallow well. The unifilter plate is heat-sealed and counted in a Packard TopCount® with a tritium efficiency of 31%.
Specific binding to eh 5-HT6 receptor is defined as the total radioactivity bound less the amount bound in the presence of […] unlabelled methiothipin. Binding in the presence of varying concentrations of test compound is expressed as a percentage of specific binding in the absence of test compound. The results are plotted as log % bound versus log concentration of the test compound. […] A linear regression is plotted, from which the IC50 value is determined, and the Ki value is determined based upon the following equation: Ki=IC50/(1+L/KD) where L is the concentration of the radioactive ligand used and KD is the dissociation constant of the ligand for the receptor, both expressed in nM.

T1 sequence (P50406 whole entry): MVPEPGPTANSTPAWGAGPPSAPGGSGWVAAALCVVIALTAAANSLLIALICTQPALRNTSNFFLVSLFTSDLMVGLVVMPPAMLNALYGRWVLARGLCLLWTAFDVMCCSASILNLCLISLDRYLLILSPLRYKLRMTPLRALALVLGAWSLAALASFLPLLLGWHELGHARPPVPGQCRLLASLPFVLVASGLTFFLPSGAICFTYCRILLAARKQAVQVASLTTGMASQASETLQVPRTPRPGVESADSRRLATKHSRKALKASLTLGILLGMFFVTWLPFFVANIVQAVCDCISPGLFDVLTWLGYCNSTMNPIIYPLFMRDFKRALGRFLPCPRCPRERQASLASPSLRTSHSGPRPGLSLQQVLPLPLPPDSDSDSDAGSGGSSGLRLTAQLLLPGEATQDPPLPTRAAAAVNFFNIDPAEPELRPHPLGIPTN

Compound | Ki
CNCCc1c[nH]c2ccc3c(=O)[nH]ccc3c12 [Example 1021, 1-(2-methylaminoethyl)-3H,7H-pyrrolo[3,2-f]isoquinolin-6-one] | 21 nM
NCCc1c[nH]c2ccc3c(=O)n(CC4CCCCC4)ccc3c12 [Example 269, 1-(2-aminoethyl)-7-cyclohexylmethyl-3H,7H-pyrrolo[3,2-]isoquinolin-6-one] | 13 nM
NCCc1c[nH]c2ccc3c(=O)n(Cc4ccccc4)ccc3c12 [Example 182] | 11 nM
Cn1ccc2c(ccc3[nH]cc(CCN)c32)c1=O [Example 94] | 18 nM
NCCc1c[nH]c2ccc3c(=O)n(Cc4ccccc4)cnc3c12 [Example 1029] | 32 nM
NCCc1c[nH]c2ccc3c(=O)n(Cc4ccsc4)ccc3c12 [Example 274, 1-(2-aminoethyl)-7-thiophen-3-ylmethyl-3H,7H-pyrrolo[3,2-f]isoquinolin-6-one] | 11 nM

Same assay, conditions: [3H]-LSD displacement, membranes of Hela cells expressing human cloned 5-HT6 receptors; read-out: 5-HT6 binding Ki

Compound | Ki
O=c1[nH]ccc2c3c(ccc12)N=CC3CCNCc1ccccc1 (stereo not shown) [Example 7A, 1-(2-Benzylaminoethyl)-6,7-dihydro-1H-pyrrolo[3,2-f]isoquinolin-6-one] | 15 nM

System: not given
Test: not given
Conditions: not given

Compound | melting point
NCCc1c[nH]c2ccc3c(=O)[nH]ccc3c12 (as salt: hydrochloride) | > 280 °C
O=c1c2ccc3[nH]cc(CCNS(=O)(=O)c4ccccc4)c3c2ccn1Cc1ccccc1 [Example 1022, N-[2-(7-benzyl-6-oxo-6,7-dihydro-3H-pyrrolo[3,2-f]isoquinolin-1-yl)-ethyl]-benzenesulfonamide] | 205 to 206 °C
Cn1ccc2c(ccc3[nH]cc(CCNCCc4ccccc4)c32)c1=O (as salt: HCl) [Example 95, 7-methyl-1-(2-phenethylaminoethyl)-3H,7H-pyrrolo[3,2-f]isoquinolin-6-one] | 205 to 208 °C
NCCc1c(Br)[nH]c2ccc3c(=O)[nH]ccc3c12 (as salt: HBr) | 252 °C (dec.)
O=c1c2ccc3c(c(CCN(Cc4ccccc4)Cc4ccccc4)cn3Cc3ccccc3)c2ccn1Cc1ccccc1 (as salt: HCl) [Example 1018, 3,7-dibenzyl-1-(2-dibenzylaminoethyl)-3H,7H-pyrrolo[3,2-f]isoquinolin-6-one] | 234 to 236 °C
CN(CCc1c[nH]c2ccc3c(=O)[nH]ccc3c12)Cc1ccccc1 (as salt: hydrochloride) | 152 to 155 °C
Cn1cnc2c(ccc3[nH]cc(CCN)c32)c1=O | 279 to 285 °C
O=c1[nH]ccc2c3c(ccc12)N=CC3CCNCc1ccccc1 (stereo not shown) (as salt: HCl) [Example 7A, 1-(2-Benzylaminoethyl)-6,7-dihydro-1H-pyrrolo[3,2-f]isoquinolin-6-one] | 210 °C
NCCc1c[nH]c2ccc3c(=O)n(CC4CCCCO4)ccc3c12 (stereo not shown) (as salt: hydrochloride) | 260 to 262 °C
NCCc1c[nH]c2ccc3c(=O)n(CC4CCCCC4)ccc3c12 (as salt: hydrochloride) [Example 269, 1-(2-aminoethyl)-7-cyclohexylmethyl-3H,7H-pyrrolo[3,2-]isoquinolin-6-one] | 220 to 224 °C
NCCCc1c[nH]c2ccc3c(=O)[nH]ccc3c12 (as salt: hydrochloride) [Example 268, 1-(3-aminopropyl)-3H,7H-pyrrolo[3,2-f]isoquinolin-6-one] | 225 to 230 °C
Cn1ccc2c(ccc3[nH]cc(CCN)c32)c1=O (as salt: hydrochloride) [Example 94] | 295 to 298 °C
NCCc1c[nH]c2ccc3c(=O)n(Cc4ccccc4)cnc3c12 [Example 1029] | 302 to 305 °C
CNCCc1c[nH]c2ccc3c(=O)[nH]ccc3c12 (as salt: HCl) [Example 1021, 1-(2-methylaminoethyl)-3H,7H-pyrrolo[3,2-f]isoquinolin-6-one] | 160 °C
CCn1ccc2c(ccc3[nH]cc(CCN)c32)c1=O (as salt: hydrochloride) | 224 to 227 °C
O=c1[nH]ccc2c1ccc1[nH]cc(CCN(Cc3ccccc3)Cc3ccccc3)c12 (as salt: HCl) | 250 to 253 °C
NCCc1c[nH]c2ccc3c(=O)n(CCc4ccccc4)ccc3c12 (as salt: hydrochloride) | 162 to 166 °C
NCCc1c(-c2ccc(Cl)cc2)[nH]c2ccc3c(=O)[nH]ccc3c12 (as salt: hydrochloride) [Example 278, 1-(2-aminoethyl)-2-(4-chlorophenyl)-3H,7H-pyrrolo[3,2-f]isoquinolin-6-one] | > 300 °C
NCCc1c[nH]c2ccc3c(=O)n(Cc4ccccc4)ccc3c12 (as salt: hydrochloride) [Example 182] | 266 to 268 °C
NCCc1c[nH]c2ccc3c(=O)n(Cc4ccccc4F)ccc3c12 (as salt: hydrochloride) | > 250 °C
NCCc1c[nH]c2ccc3c(=O)n(Cc4ccc(F)cc4)ccc3c12 (as salt: hydrochloride) | 247 to 249 °C
